The source made the active and inactive calls. The rule behind the calls is not given here.
Legend:
Homo sapiens = organism: Homo sapiens; assay: Binding affinity to STAT5 (unknown origin) assessed as maximum inhibition by FP assay relative to control
[1] = molecular target: T1, Protein cereblon/Signal transducer and activator of transcription 3 (Homo sapiens, UniProt P40763+Q96SW2); assay: (§1) PROTAC activity at STAT3/CRBN in human Pfeiffer cells transfected with STAT3 K658R mutant assessed as reduction in STAT3 level incubated for 20 hrs by Western blot analysis; assay type: cell-based; settings: dose <= 40.0 µM
[2] = molecular target: Protein cereblon/Signal transducer and activator of transcription 3 (Homo sapiens, UniProt P40763+Q96SW2, K658R); assay: as §1; assay type: cell-based
[3] = molecular target: T2, Protein cereblon/Signal transducer and activator of transcription 3 (Mus musculus) (UniProt P42227+Q8C7D2); assay: In-vivo PROTAC activity at STAT3/CRBN in female CB17 SCID mouse assessed as STAT3 depletion spleen at 5 mg/kg, iv measured at 1 hr by immunobloting analysis; assay type: functional, organism-based
[4] = Stability in Non human primate plasma assessed as half life; assay type: ADME, cell-free
[5] = Half life in ICR mouse at 5 mg/kg, iv; assay type: ADME, organism-based; settings: in vivo
[6] = molecular target: T3, Protein cereblon/Signal transducer and activator of transcription 4 (Homo sapiens, UniProt Q96SW2+Q14765); assay: PROTAC activity at STAT4/CRBN in human PBMC cells assessed as reduction in STAT4 level incubated for 20 hrs by Western blot analysis; assay type: cell-based
[7] = Drug concentration in female CB17 SCID mouse plasma at 5 mg/kg, iv measured at 3 hrs by LC-MS/MS analysis; assay type: ADME, organism-based
[8] = molecular target: T2, Protein cereblon/Signal transducer and activator of transcription 3 (Mus musculus); assay: In-vivo PROTAC activity at STAT3/CRBN in female CB17 SCID mouse assessed as reduction STAT3 level liver at 10 mg/kg, iv measured at 72 hrs by Western blot analysis; assay type: functional, organism-based; parameters: scale not given: the % may be the effect or the level left
[9] = Stability in human plasma assessed as parent compound remaining at […]; assay type: ADME, cell-free; settings: read-out: Stability
[10] = Drug concentration in female CB17 SCID mouse liver at 5 mg/kg, iv measured at 3 hrs by LC-MS/MS analysis; assay type: ADME, organism-based; settings: read-out: Ct
[11] = Half life in Sprague-Dawley rat at 5 mg/kg, iv; assay type: ADME, organism-based; settings: in vivo
[12] = molecular target: T3, Protein cereblon/Signal transducer and activator of transcription 4; assay: PROTAC activity at STAT4/CRBN in human MOLM16 cells assessed as reduction in STAT4 level incubated for 4 hrs by Western blot analysis; assay type: cell-based
[13] = Apparent permeability across basolateral to apical side in human Caco-2 cells; assay type: ADME, cell-based
[14] = molecular target: T1, Protein cereblon/Signal transducer and activator of transcription 3; assay: PROTAC activity at STAT3/CRBN in human Pfeiffer cells transfected with STAT3 K658R mutant assessed as reduction in STAT3 level at 64 nM incubated for 20 hrs by Western blot analysis; assay type: cell-based; parameters: scale not given: the % may be the effect or the level left
[15] = Drug concentration in female CB17 SCID mouse tumor at 5 mg/kg, iv measured at 1 hr by LC-MS/MS analysis; assay type: ADME, organism-based, Neoplasm; settings: read-out: Ct
[16] = Clearance in Beagle dog assessed as hepatic blood flow at 1 mg/kg, iv; assay type: ADME, organism-based, Canis lupus familiaris; settings: in vivo
[17] = molecular target: T4, Protein cereblon/Signal transducer and activator of transcription 2 (Homo sapiens) (UniProt Q96SW2+P52630); assay: PROTAC activity at STAT2/CRBN in human Pfeiffer cells transfected with STAT3 K658R mutant assessed as reduction in STAT2 level upto 40 uM incubated for 20 hrs by Western blot analysis; assay type: cell-based
[18] = molecular target: Signal transducer and activator of transcription 4 (Homo sapiens) (UniProt Q14765); assay: Binding affinity to STAT4 (unknown origin) assessed as maximum inhibition by FP assay relative to control
[19] = molecular target: T4, Protein cereblon/Signal transducer and activator of transcription 2 (Homo sapiens); assay: PROTAC activity at STAT2/CRBN in human MOLM16 cells assessed as reduction in STAT2 level upto 40 uM incubated for 4 hrs by Western blot analysis; assay type: cell-based
[20] = Stability in mouse plasma assessed as half life; assay type: ADME, cell-free
[21] = Drug concentration in female CB17 SCID mouse spleen at 5 mg/kg, iv measured at 48 hrs by LC-MS/MS analysis; assay type: ADME, organism-based; settings: read-out: Ct
[22] = Drug concentration in female CB17 SCID mouse plasma at 5 mg/kg, iv measured at 6 hrs by LC-MS/MS analysis; assay type: ADME, organism-based
[23] = molecular target: T4, Protein cereblon/Signal transducer and activator of transcription 2 (Homo sapiens); assay: PROTAC activity at STAT2/CRBN in human SU-DHL-1 cells assessed as reduction in STAT2 level upto 40 uM incubated for 20 hrs by Western blot analysis; assay type: cell-based
[24] = Drug concentration in female CB17 SCID mouse liver at 5 mg/kg, iv measured at 72 hrs by LC-MS/MS analysis; assay type: ADME, organism-based; settings: read-out: Ct
[25] = molecular target: T3, Protein cereblon/Signal transducer and activator of transcription 4; assay: PROTAC activity at STAT4/CRBN in human Pfeiffer cells transfected with STAT3 K658R mutant assessed as reduction in STAT4 level upto 40 uM incubated for 20 hrs by Western blot analysis; assay type: cell-based
[26] = molecular target: T1, Protein cereblon/Signal transducer and activator of transcription 3; assay: PROTAC activity at his-SUMO-tagged STAT3 (127 to 688 residues)/CRBN in human SU-DHL-1 cells assessed as reduction in STAT3 level upto 40 uM incubated for 20 hrs by Western blot analysis relative to control; assay type: cell-based; parameters: scale not given: the % may be the effect or the level left
[27] = molecular target: T1, Protein cereblon/Signal transducer and activator of transcription 3; assay: PROTAC activity at STAT3/CRBN in human MOLM16 cells assessed as reduction in STAT3 level at 64 nM incubated for 4 hrs by Western blot analysis; assay type: cell-based
[28] = Stability in Non human primate plasma assessed as parent compound remaining at […]; assay type: ADME, cell-free; settings: read-out: Stability
[29] = Drug concentration in female CB17 SCID mouse liver at 5 mg/kg, iv measured at 1 hr by LC-MS/MS analysis; assay type: ADME, organism-based; settings: read-out: Ct
[30] = Plasma protein binding in human assessed as unbound fraction at 10 uM; assay type: ADME, cell-free
[31] = Drug concentration in female CB17 SCID mouse spleen at 5 mg/kg, iv measured at 6 hrs by LC-MS/MS analysis; assay type: ADME, organism-based; settings: read-out: Ct
[32] = Plasma protein binding in dog assessed as unbound fraction at 10 uM; assay type: ADME, cell-free, Canis lupus familiaris
[33] = Toxicity in iv dosed mouse assessed as weight gain; assay type: organism-based; settings: in vivo, dose 5-20 mg/kg
[34] = Drug concentration in female CB17 SCID mouse spleen at 5 mg/kg, iv measured at 24 hrs by LC-MS/MS analysis; assay type: ADME, organism-based; settings: read-out: Ct
[35] = molecular target: Signal transducer and activator of transcription 4 (Homo sapiens, UniProt Q14765); assay: Binding affinity to STAT4 (unknown origin) by FP assay
Cytochrome P450 2B6 = Cytochrome P450 2B6 (Homo sapiens, UniProt P20813); assay: Inhibition of CYP2B6 (unknown origin); assay type: ADME
[36] = Apparent volume of distribution in Beagle dog at 1 mg/kg, iv; assay type: ADME, organism-based, Canis lupus familiaris; settings: in vivo, read-out: Vz
[37] = molecular target: T1, Protein cereblon/Signal transducer and activator of transcription 3; assay: PROTAC activity at his-SUMO-tagged STAT3 (127 to 688 residues)/CRBN in human SU-DHL-1 cells assessed as reduction in STAT3 level incubated for 20 hrs by Western blot analysis; assay type: cell-based
[38] = molecular target: Protein cereblon/Signal transducer and activator of transcription 6 (Homo sapiens) (UniProt P42226+Q96SW2); assay: PROTAC activity at STAT6/CRBN in human SU-DHL-1 cells assessed as reduction in STAT6 level incubated for 20 hrs by Western blot analysis; assay type: cell-based

COC(=O)N1CC[C@H]2CC[C@@H](C(=O)N[C@@H](CCC(N)=O)C(=O)N[C@@H](Cc3ccc(F)c(F)c3)C(=O)N3CCC(CCC#Cc4cccc5c4CN(C4CCC(=O)NC4=O)C5=O)CC3)N2C(=O)[C@@H](NC(=O)c2cc3cc(C(F)(F)P(=O)(O)O)ccc3s2)C1 (stereo not given in full)
Imax (Homo sapiens): 50%
Activity [1]: Dose-dependent-effect
DC50 [2]: 2.5 nM
Activity [3]: > 70%
half-life [4]: > 2 h
half-life [5]: 22.1 h
DC50 [6]: 1600 nM
concentration at 3 h [7]: 31200 ng/mL
Activity [8]: > 90%
remaining at 2 h [9]: 75%
concentration at 3 h [10]: 3850 ng/g
half-life [11]: 1 h
Activity [12]: inactive
Papp [13]: 0.13 10^-6 cm/s
Activity [14]: > 90%
concentration at 1 h [15]: 4810 ng/g
QH [16]: 2.7%
Activity [17]: inactive
Imax [18]: 100%
Activity [19]: inactive
t1/2 [20]: > 2 h
concentration at 48 h [21]: 615 ng/g
concentration at 6 h [22]: 30300 ng/mL
Activity [23]: inactive
concentration at 72 h [24]: 598 ng/g
Activity [25]: inactive
Activity [26]: > 95%
Activity [27]: Active
remaining at 2 h [28]: 101%
concentration at 1 h [29]: 5850 ng/g
Fu [30]: 0.5%
concentration at 6 h [31]: 1950 ng/g
Fu [32]: 1.7%
Activity [33]: Non-toxic
concentration at 24 h [34]: 868 ng/g
IC50 [35]: 360 nM
IC50 (Cytochrome P450 2B6): > 10000 nM
Vd [36]: 0.29 L/kg
DC50 [37]: 10 nM
Activity [38]: Active

— ChEMBL document CHEMBL6092220 (J Med Chem, 2024)
